Measured values from the NIST ThermoML archive (doi:10.1016/j.jct.2017.03.006).
Numbers after ± are expanded uncertainties.

Assay: xn = mol fraction of the nth substance listed
Conditions: 293.15 K, Liquid, Vibrating tube method

Cc1ccc(C)c(C)c1 [1,2,4-trimethylbenzene] + CCC(C)O
mass density [kg/m3]
Conditions | x2 = 0 | x2 = 0.1 | x2 = 0.1989 | x2 = 0.3011 | x2 = 0.4002 | x2 = 0.5001 | x2 = 0.5997 | x2 = 0.6999 | x2 = 0.7999 | x2 = 0.9
100 kPa | – | – | 863.6 ± 0.7 | 857.4 ± 0.7 | 851.4 ± 0.7 | 845 ± 0.7 | 838.2 ± 0.7 | 831.1 ± 0.7 | 823.6 ± 0.7 | 815.3 ± 0.7
1000 kPa | 875.7 ± 0.7 | 869.9 ± 0.7 | 864.2 ± 0.7 | 858 ± 0.7 | 852 ± 0.7 | 845.6 ± 0.7 | 838.9 ± 0.7 | 831.8 ± 0.7 | 824.3 ± 0.7 | 816 ± 0.7
2000 kPa | 876.3 ± 0.7 | 870.6 ± 0.7 | 864.9 ± 0.7 | 858.8 ± 0.7 | 852.8 ± 0.7 | 846.4 ± 0.7 | 839.7 ± 0.7 | 832.6 ± 0.7 | 825 ± 0.7 | 816.8 ± 0.7
5000 kPa | 878.2 ± 0.7 | 872.7 ± 0.7 | 867 ± 0.7 | 860.9 ± 0.7 | 854.9 ± 0.7 | 848.5 ± 0.7 | 841.9 ± 0.7 | 834.8 ± 0.7 | 827.3 ± 0.7 | 819.1 ± 0.7
10000 kPa | 881.4 ± 0.7 | 875.9 ± 0.7 | 870.3 ± 0.7 | 864.2 ± 0.7 | 858.3 ± 0.7 | 852 ± 0.7 | 845.4 ± 0.7 | 838.3 ± 0.7 | 830.9 ± 0.7 | 822.7 ± 0.7
15000 kPa | 884.4 ± 0.7 | 879 ± 0.7 | 873.4 ± 0.7 | 867.5 ± 0.7 | 861.6 ± 0.7 | 855.3 ± 0.7 | 848.7 ± 0.7 | 841.7 ± 0.7 | 834.3 ± 0.7 | 826.1 ± 0.7
20000 kPa | 887.3 ± 0.7 | 882.1 ± 0.7 | 876.5 ± 0.7 | 870.6 ± 0.7 | 864.7 ± 0.7 | 858.5 ± 0.7 | 851.9 ± 0.7 | 845 ± 0.7 | 837.6 ± 0.7 | 829.5 ± 0.7
30000 kPa | 892.9 ± 0.7 | 887.9 ± 0.7 | 882.4 ± 0.7 | 876.6 ± 0.7 | 870.8 ± 0.7 | 864.6 ± 0.7 | 858.1 ± 0.7 | 851.2 ± 0.7 | 843.9 ± 0.8 | 835.8 ± 0.8
40000 kPa | 898.2 ± 0.7 | 893.4 ± 0.7 | 888 ± 0.7 | 882.2 ± 0.7 | 876.5 ± 0.7 | 870.4 ± 0.8 | 863.9 ± 0.8 | 857 ± 0.8 | 849.7 ± 0.8 | 841.7 ± 0.8
50000 kPa | 903.2 ± 0.7 | 898.6 ± 0.7 | 893.2 ± 0.8 | 887.5 ± 0.8 | 881.8 ± 0.8 | 875.7 ± 0.8 | 869.3 ± 0.8 | 862.5 ± 0.8 | 855.2 ± 0.8 | 847.2 ± 0.8
60000 kPa | 908 ± 0.8 | 903.6 ± 0.8 | 898.3 ± 0.8 | – | – | – | – | – | – | –
